Test results published in ChEMBL document CHEMBL1201862, “PubChem BioAssay data set” (2004).
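Cultured in 96-well plates, cells were exposed to test compound for 48 hours across five concentrations. GI50 is the concentration that inhibits growth by half.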 Calls of active or inactive are those of the source. Cut-off read from the data, not from the text of the source: active = GI50 up to about 1.1 µM and inactive = higher.

How the values were obtained:
Experiment in all cases: NCI-60 cell line screen, 48 h
A498 = tested on: A498
ACHN = tested on: ACHN
HCT-15 = tested on: HCT-15
K562 = tested on: K562
KM12 = tested on: KM12
M14 = tested on: M14
NCI-H23 = tested on: NCI-H23
NCI-H460 = tested on: NCI-H460
OVCAR-3 = tested on: OVCAR-3
RXF 393 = tested on: RXF 393
SF-268 = tested on: SF-268
SK-MEL-2 = tested on: SK-MEL-2
SNB-75 = tested on: SNB-75
SR = tested on: SR
U-251 = tested on: U-251
SN12C = tested on: SN12C
EKVX = tested on: EKVX

Row | SMILES | GI50 (A498) | GI50 (ACHN) | GI50 (HCT-15) [µM] | GI50 (K562) | GI50 (KM12) | GI50 (M14) | GI50 (NCI-H23) | GI50 (NCI-H460) | GI50 (OVCAR-3) | GI50 (RXF 393) | GI50 (SF-268) | GI50 (SK-MEL-2) | GI50 (SNB-75) | GI50 (SR) | GI50 (U-251) | GI50 (SN12C) | GI50 (EKVX)
1 | Clc1ccc(OCc2nnc3n2N=C(c2ccccc2)CS3)c(Cl)c1 | 2.24 µM (inactive) | 29 µM (inactive) | > 100 | 4.25 µM (inactive) | > 100 µM (inactive) | > 10 µM (inactive) | 5.66 µM (inactive) | 5 µM (inactive) | > 10 µM (inactive) | 26.4 µM (inactive) | 8.73 µM (inactive) | > 100 µM (inactive) | 3.02 µM (inactive) | 4.73 µM (inactive) | 4.81 µM (inactive) | – | –
2 | COC(=O)C(Br)C1CCc2ccccc21 (stereo not drawn) | > 100 µM (inactive) | > 100 µM (inactive) | > 100 | 52.7 µM (inactive) | – | > 100 µM (inactive) | > 100 µM (inactive) | > 100 µM (inactive) | 63.1 µM (inactive) | – | > 100 µM (inactive) | – | – | 42.8 µM (inactive) | > 100 µM (inactive) | > 100 µM (inactive) | –
3 | CC(=O)c1ccccc1NC(=O)C(=O)C(C(=O)c1ccccc1-c1ccccc1)C1OC(=O)c2ccccc21 (stereo not drawn) | 20.5 µM (inactive) | 22.5 µM (inactive) | 19.7 | 25.3 µM (inactive) | 18 µM (inactive) | 18.2 µM (inactive) | 16.5 µM (inactive) | 19.1 µM (inactive) | 20.7 µM (inactive) | 11.5 µM (inactive) | – | 17.2 µM (inactive) | 25.5 µM (inactive) | 21.6 µM (inactive) | 16 µM (inactive) | 17.1 µM (inactive) | 29.7 µM (inactive)
4 | CC(C)C1=CC(=O)C(C)(C2=NC(C)(C)CO2)c2ccccc21 (stereo not drawn) | – | > 100 µM (inactive) | > 100 | 50.4 µM (inactive) | > 100 µM (inactive) | > 100 µM (inactive) | > 100 µM (inactive) | > 100 µM (inactive) | > 100 µM (inactive) | > 100 µM (inactive) | > 100 µM (inactive) | > 100 µM (inactive) | 96.4 µM (inactive) | 60.3 µM (inactive) | > 100 µM (inactive) | > 100 µM (inactive) | 96.6 µM (inactive)
5 | CCCCCCCCCCCCCC(=O)NCO | > 100 µM (inactive) | > 100 µM (inactive) | > 100 | – | > 100 µM (inactive) | > 100 µM (inactive) | > 100 µM (inactive) | > 100 µM (inactive) | > 100 µM (inactive) | > 100 µM (inactive) | > 100 µM (inactive) | > 100 µM (inactive) | > 100 µM (inactive) | – | > 100 µM (inactive) | > 100 µM (inactive) | > 100 µM (inactive)
6 | CCCP1(=O)C=C(C)C(=C(Cl)Cl)C(C)=C1 (stereo not drawn) | 68.9 µM (inactive) | 44.3 µM (inactive) | 30.7 | 30.8 µM (inactive) | 24.2 µM (inactive) | 33.7 µM (inactive) | 34.7 µM (inactive) | 37.4 µM (inactive) | 84.9 µM (inactive) | 25.9 µM (inactive) | 25.9 µM (inactive) | 16.3 µM (inactive) | – | 24.5 µM (inactive) | > 100 µM (inactive) | 24.6 µM (inactive) | 83 µM (inactive)
7 | CC/C=C\C/C=C\C1CC(=O)NCCCNCCCCN1 (stereo not drawn) | – | – | – | – | > 100 µM (inactive) | 48 µM (inactive) | > 100 µM (inactive) | > 100 µM (inactive) | – | 4.83 µM (inactive) | > 100 µM (inactive) | 68.9 µM (inactive) | > 100 µM (inactive) | > 100 µM (inactive) | > 100 µM (inactive) | > 100 µM (inactive) | > 100 µM (inactive)
8 | O=[N+]([O-])c1cc(-c2nnc(S)[nH]2)ccc1O | > 100 µM (inactive) | > 100 µM (inactive) | 16.5 | > 100 µM (inactive) | > 100 µM (inactive) | > 100 µM (inactive) | > 100 µM (inactive) | 44.4 µM (inactive) | – | > 100 µM (inactive) | > 100 µM (inactive) | > 100 µM (inactive) | – | – | > 100 µM (inactive) | > 100 µM (inactive) | > 100 µM (inactive)
9 | O=C1C2=C(c3ccccc31)C(c1ccc([N+](=O)[O-])cc1)NC(S)=N2 (stereo not drawn) | > 100 µM (inactive) | 70 µM (inactive) | 51.9 | 49.1 µM (inactive) | 87.7 µM (inactive) | 91.2 µM (inactive) | 38.5 µM (inactive) | 67.8 µM (inactive) | 49.9 µM (inactive) | – | 42.2 µM (inactive) | 96.8 µM (inactive) | 23.9 µM (inactive) | – | > 100 µM (inactive) | 47.4 µM (inactive) | > 100 µM (inactive)
10 | O=CC[C@H]1C(=O)C[C@@H]2CCC[C@@H]21 | > 100 µM (inactive) | > 100 µM (inactive) | 45.7 | 34.2 µM (inactive) | 51.8 µM (inactive) | 68.2 µM (inactive) | 43.7 µM (inactive) | > 100 µM (inactive) | 47.6 µM (inactive) | 29.6 µM (inactive) | 89.1 µM (inactive) | 59.2 µM (inactive) | 64.4 µM (inactive) | – | 98.6 µM (inactive) | 92.3 µM (inactive) | > 100 µM (inactive)
11 | Cc1nnc2c3nnc(C)n3c3ccccc3n12 | > 100 µM (inactive) | > 100 µM (inactive) | > 100 | > 100 µM (inactive) | > 100 µM (inactive) | > 100 µM (inactive) | > 100 µM (inactive) | > 100 µM (inactive) | > 100 µM (inactive) | > 100 µM (inactive) | > 100 µM (inactive) | > 100 µM (inactive) | > 100 µM (inactive) | – | > 100 µM (inactive) | > 100 µM (inactive) | > 100 µM (inactive)
12 | COc1c(C)n(CCO)ccc1=O | > 100 µM (inactive) | > 100 µM (inactive) | > 100 | > 100 µM (inactive) | > 100 µM (inactive) | > 100 µM (inactive) | – | > 100 µM (inactive) | > 100 µM (inactive) | > 100 µM (inactive) | > 100 µM (inactive) | > 100 µM (inactive) | > 100 µM (inactive) | > 100 µM (inactive) | > 100 µM (inactive) | > 100 µM (inactive) | > 100 µM (inactive)
13 | CCCCCCCCCCCCCC(=O)OCC(C[As](=O)(O)O)OC(=O)CCCCCCCCCCCCC (stereo not drawn) | > 100 µM (inactive) | > 100 µM (inactive) | 69.3 | > 100 µM (inactive) | > 100 µM (inactive) | > 100 µM (inactive) | > 100 µM (inactive) | > 100 µM (inactive) | > 100 µM (inactive) | 35.3 µM (inactive) | > 100 µM (inactive) | > 100 µM (inactive) | > 100 µM (inactive) | > 100 µM (inactive) | 43.9 µM (inactive) | 92 µM (inactive) | > 100 µM (inactive)
14 | Brc1ccc(C[P+]2(c3ccccc3)CCCCC2)cc1.[O-][Cl+3]([O-])([O-])[O-] | > 100 µM (inactive) | > 100 µM (inactive) | > 100 | 77.4 µM (inactive) | 56.1 µM (inactive) | 65.9 µM (inactive) | 96.2 µM (inactive) | > 100 µM (inactive) | 43.6 µM (inactive) | > 100 µM (inactive) | – | 33.7 µM (inactive) | 26.2 µM (inactive) | 38.1 µM (inactive) | 29.6 µM (inactive) | > 100 µM (inactive) | > 100 µM (inactive)
15 | CCOC(=O)/N=c1/nc(N(C)C)ss1 | > 100 µM (inactive) | > 100 µM (inactive) | > 100 | > 100 µM (inactive) | > 100 µM (inactive) | > 100 µM (inactive) | > 100 µM (inactive) | > 100 µM (inactive) | – | > 100 µM (inactive) | > 100 µM (inactive) | > 100 µM (inactive) | > 100 µM (inactive) | > 100 µM (inactive) | > 100 µM (inactive) | > 100 µM (inactive) | > 100 µM (inactive)
16 | CC(=O)NNc1nc(C)c(C(=O)/C=C/c2ccc(/C=C/C(=O)c3sc(NNC(C)=O)nc3C)cc2)s1 | – | > 100 µM (inactive) | > 100 | > 100 µM (inactive) | > 100 µM (inactive) | 43.2 µM (inactive) | > 100 µM (inactive) | > 100 µM (inactive) | > 100 µM (inactive) | > 100 µM (inactive) | > 100 µM (inactive) | > 100 µM (inactive) | – | > 100 µM (inactive) | > 100 µM (inactive) | > 100 µM (inactive) | 57.3 µM (inactive)
17 | O=C1/C(=C/c2ccc(Cl)cc2)COc2ccc(Br)cc21 | > 100 µM (inactive) | > 100 µM (inactive) | – | > 100 µM (inactive) | > 100 µM (inactive) | – | > 100 µM (inactive) | > 100 µM (inactive) | > 100 µM (inactive) | 50.5 µM (inactive) | > 100 µM (inactive) | > 100 µM (inactive) | > 100 µM (inactive) | – | > 100 µM (inactive) | – | > 100 µM (inactive)
18 | NC(=O)CCC(NC(=O)C(F)(F)F)C(=O)O (stereo not drawn) | > 100 µM (inactive) | > 100 µM (inactive) | > 100 | > 100 µM (inactive) | > 100 µM (inactive) | > 100 µM (inactive) | > 100 µM (inactive) | > 100 µM (inactive) | > 100 µM (inactive) | > 100 µM (inactive) | > 100 µM (inactive) | > 100 µM (inactive) | > 100 µM (inactive) | – | > 100 µM (inactive) | > 100 µM (inactive) | > 100 µM (inactive)
19 | Cc1ccc(NC(=O)CC/C(CC(=O)c2ccc(F)cc2)=N\NC(=O)C(=O)NN)cc1C | > 100 µM (inactive) | > 100 µM (inactive) | > 100 | > 100 µM (inactive) | > 100 µM (inactive) | > 100 µM (inactive) | > 100 µM (inactive) | > 100 µM (inactive) | > 100 µM (inactive) | > 100 µM (inactive) | > 100 µM (inactive) | > 100 µM (inactive) | > 100 µM (inactive) | – | > 100 µM (inactive) | > 100 µM (inactive) | > 100 µM (inactive)
